In patent US8980844B2, “Peptide having antibacterial or anti-inflammatory activity and pharmaceutical composition containing the same as an active ingredient” (Nano Intelligent Biomedical Engineering Corporation Co. Ltd., priority 2010, dated 2015):
Structures can show the parent of a compound that is named as a salt. No end group written: not given here.

Tests used:
Assay type in all cases: cell-based
[1] = tested on: NF-κB expression in RAW 264.7 cells; experiment: Western blot analysis of NF-κB; conditions: 1 hour pretreatment, LPS 10 ng/ml, 8 hours, FIG. 3
Procedure: In order to examine association with signals, the expression of the allergic inflammation-associated enzyme NF-κB associated with the NF-κB signal was measured.
(§1) RAW 264.7 cells obtained from ATCC (American Type Culture Collection) were incubated in a CO2 incubator (supplied with 5% CO2 and 95% air) with DMEM (Dulbecco's modified Eagle medium) medium containing 10% FBS and 100 units/ml of antibiotics (penicillin and streptomycin) at 37° C.
The incubated RAW 264.7 cells were treated with each of the peptides having the amino acid sequences of SEQ ID NOS: 1 to 4 for 1 hour, and then treated with LPS (10 ng/ml). After 8 hours, a protein of each of the cytosol and the nucleus was collected and compared with the changes in expression of NF-κB caused by hBD3, rhPDGF-BB and rhHB-EGF. The collected protein was identified by SDS-PAGE and transferred to a nitrocellulose membrane using a blotting kit. The membrane was blotted with the primary antibody NF-κB and exposed to HRP (horseradish peroxidase)-conjugated secondary antibody. Then, the membrane was allowed to react with an ECL western blot detection reagent and exposed to an X-ray film to detect a signal, thereby measuring the expression of the inflammation-associated enzyme NF-κB.

[2] = tested on: iNOS expression in RAW 264.7 cells; experiment: Western blot analysis of iNOS; conditions: 1 hour pretreatment, LPS 10 ng/ml, 8 hours, FIG. 4
Procedure: as §1
(§2) The incubated RAW 264.7 cells were treated with each of the peptides having the amino acid sequences of SEQ ID NOS: 1 to 4 for 1 hour, and then treated with LPS (10 ng/ml). After 8 hours, a protein of each of the cytosol and the nucleus was collected and compared with the changes in expressions of iNOS and COX-2 caused by hBD3, rhPDGF-BB and rhHB-EGF. The collected protein was identified by SDS-PAGE and transferred to a nitrocellulose membrane using a blotting kit. The membrane was blotted with each of the primary antibodies iNOS and COX-2 and exposed to HRP (horseradish peroxidase)-conjugated secondary antibody. Then, the membrane was allowed to react with an ECL western blot detection reagent and exposed to an X-ray film to detect signals, thereby measuring the expressions of the inflammation-associated enzymes iNOS and COX-2.

[3] = tested on: COX-2 expression in RAW 264.7 cells; experiment: Western blot analysis of COX-2; conditions: 1 hour pretreatment, LPS 10 ng/ml, 8 hours, FIG. 4
Procedure: as §1, §2

[4] = tested on: Prevotella intermedia, Actinomyces israelii, Fusobacterium nucleatum, Staphylococcus aureus subsp aureus, Streptococcus pyogenes, Staphylococcus epidermidis; experiment: Antibacterial activity by liquid dilution method (colony count); conditions: liquid dilution method, 1, 10 and 100 μg/ml, 37° C. for 1 hour, number of colonies counted; FIG. 1
Procedure: In order to evaluate the antibacterial effects of the peptides having the amino acid sequences of SEQ ID NOS: 1 to 4, measurement of the antibacterial activities of the peptides was carried out using a liquid dilution method. Periodontal pathogens, including Prevotella intermedia, Actinomyces israelii, and Fusobacterium nucleatum, were cultured in tryptic soy broth. Staphylococcus aureus subsp aureus and Streptococcus pyogenes were curtured in trypticase soy broth, and Staphylococcus epidermidis was curtured in nutrient liquid medium. After the above bacterial strains had been cultured until the absorbance at 620 nm reached 1, the cells were collected and used in the test. […]
In order to measure the antibacterial activities of the peptides using the liquid dilution method, 1 ml of distilled water was placed in a fine tube, after which 10 μl of the diluted bacterial cell solution was placed in the tube, and then 50 μl of the solution was plated on plate medium and used as a control. Meanwhile, plate medium was treated with each of the antibacterial peptides at concentrations of 1 μg/ml, 10 μg/ml and 100 μg/ml at 37° C. for 1 hours, after which 50 μl of the bacterial cell solution was plated on the plate medium, and the number of colonies produced was counted. […]

[5] = tested on: Basophilic leukemia RBL-2H3 cells; experiment: Change in release of β-hexosaminidase (degranulation, anti-allergic effect); conditions: RBL-2H3 cells sensitised with anti-DNP IgE, challenged with DNP-HAS; concentration of 100 μM; FIG. 2
Procedure: In order to examine the anti-allergic effects of the peptides having the amino acid sequences of SEQ ID NOS: 1 to 4, the changes in release of β-hexosaminidase by the peptides were measured.
Basophilic leukemia RBL-2H3 cells obtained from ATCC (American Type Culture Collection) were cultured in a CO2 incubator (supplied with 5% CO2 and 95% air) with DMEM (Dulbecco's modified Eagle medium) medium containing 10% FBS (heat inactivated fetal bovine serum) and 100 units/ml of antibiotics (penicillin and streptomycin) at 37° C. for 24 hours. Specifically, the cells were cultured in a 96-well plate at a density of 5×10^4 cells/well, and then the supernatant was removed. […] Then, the absorbance at 405 nm was measured and the change in release of β-hexosaminidase was determined. The method of measuring the amount of β-hexosaminidase is known to be sensitive and accurate compared to a method of quantifying histamine, and thus has recently been frequently used in studies on degranulation. For comparison, In addition, the changes in release of β-hexosaminidase by KF and growth factors (hBD3, rhPDGF-BB and rhHB-EGF), which are used as agents for treating allergic diseases, were measured in the same manner as described above and compared with the changes caused by the peptides.

Molecule | LPS-induced expression of NF-κB [1] | LPS-induced expression of iNOS [2] | LPS-induced expression of COX-2 [3] | antibacterial activity [4] | release of β-hexosaminidase [5]
CN1CCC(=C2c3ccccc3CC(=O)c3sccc32)CC1 [KF, ketotifen fumarate, reference compound] | smaller than the inhibitory effects of the peptides | smaller than the inhibitory effects of the peptides | smaller than the inhibitory effects of the peptides | – | –
hBD3: human beta-defensin-3, comparator (GIINTLQKYYCRVRGGRCAVLSCLPKEEQIGKCSTRGRKCCRRKK; ends and bridges not checked; cysteine pairing not given here; UniProt P81534 23-67, looked up) | not greater than those of the peptides | no inhibitory effect | no inhibitory effect | lower than those of the peptides | did not influence the reduction in the release of β-hexosaminidase
rhHB-EGF: recombinant human HB-EGF, comparator growth factor (protein, UniProt Q99075 63-148, looked up) Heparin-binding EGF-like …: DLQEADLDLLRVTLSSKPQALATPNKEEHGKRKKKGKGLGKKRDPCLRKYKDFCIHGECKYVKELRAPSCICHPGYHGERCHGLSL | not greater than those of the peptides | no inhibitory effect | no inhibitory effect | lower than those of the peptides | did not influence the reduction in the release of β-hexosaminidase
